“And” between values parts separate entries of the source, which are not always exact repeats. Identical values can stand only once. The source made the active and inactive calls. The calls are words filed in the database; no cut-off is given here.
How the values were obtained:
Leishmania donovani [1] = test: (§1) Antileishmanial activity against antimony resistant Leishmania donovani BPK190 promastigotes infected in C57BL/6 mouse bone marrow-derived macrophages assessed as reduction in parasite load at 10 uM treated with compound at 24 hrs post-infection measured after 72 hrs post infection by q-PCR analysis relative to control; assay type: functional
Leishmania donovani [2] = test: as §1, with “sensitive” for “resistant”, “BPK091” for “BPK190”; assay type: functional
[3] = Binding affinity to trypsin in bovine pancreas in phosphate buffer assessed as increase in emission intensity at 530 nm at 5 uM measured at pH 8 by fluorescence emission spectrum analysis; assay type: ADME, Bos taurus; conditions: cattle
[4] = Toxicity in Syrian hamster infected with Leishmania infantum BCN150 promastigotes assessed as effect on ALT level at 40 mg/kg/day, po for 10 days formulated with 8% v/v DMSO measured after the last treatment; assay type: organism-based, Mesocricetus auratus; conditions: in vivo, 240 h
Leishmania infantum [5] = test: Antileishmanial activity against Leishmania infantum amastigotes infected in Syrian hamster assessed as parasite load within spleen at 40 mg/kg/day, po for 10 days formulated with 50% v/v cyclodextrin (reference value: 8508698.676 +/- 2835609.487/g); assay type: functional
[6] = Cmax in BALB/c mouse at 1 mg/kg, iv measured upto 72 hrs by snapshot method; assay type: ADME, organism-based; set-up: dose 1 mg/kg, route intravenous; conditions: in vivo
Leishmania infantum [7] = test: Antileishmanial activity against Leishmania infantum amastigotes infected in Syrian hamster assessed as parasite load within spleen at 40 mg/kg/day, po for 10 days formulated with 8% v/v DMSO (reference value: 9151063.431 +/- 2606154.975/g); assay type: functional
[8] = Toxicity in Syrian hamster infected with Leishmania infantum BCN150 promastigotes assessed as effect on alkaline phosphatase level at 40 mg/kg/day, po for 10 days formulated with 30 to 50% v/v cyclodextrin measured after the last treatment; assay type: organism-based, Mesocricetus auratus; conditions: in vivo, 240 h
[9] = Toxicity in Syrian hamster infected with Leishmania infantum BCN150 promastigotes assessed as liver weight at 40 mg/kg/day, po for 10 days formulated with 30% v/v cyclodextrin (reference value: 5.102 +/- 0.729 g); assay type: organism-based, Mesocricetus auratus; conditions: in vivo, 240 h
[10] = Chemical stability of compound in PBS assessed as decrease in absorbance at 60 uM at pH 7 to 8 and 25 degC measured within 50 mins under dark conditions by UV-vis spectrophotometry analysis; assay type: physicochemical; conditions: read-out: Drug degradation
[11] = Chemical stability of compound in PBS at 20 uM at pH 8 exposed to 2-mins nitrogen bubbling followed by supplementation with human serum albumin measured for 6 hrs by UV-vis spectrophotometry analysis; assay type: physicochemical
Albumin = Albumin (Bos taurus, UniProt P02769); test: Binding affinity to bovine serum albumin in phosphate buffer assessed as decrease in emission intensity at 450 nm at 5 uM measured at pH 8 by fluorescence emission spectrum analysis; assay type: ADME; conditions: cattle, isolated protein
Leishmania infantum [12] = test: Anti-leishmanial activity against Leishmania infantum BCN150 promastigotes infected in Syrian hamster assessed as decrease in anti-leishmanial IgG level at 40 mg/kg/day, po for 10 days formulated with 30 to 50 % v/v cyclodextrin by ELISA; assay type: functional, organism-based
Leishmania infantum [13] = test: Antileishmanial activity against Leishmania infantum amastigotes infected in Syrian hamster assessed as parasite load within liver at 40 mg/kg/day, po for 10 days formulated with 30% v/v cyclodextrin (reference value: 4333333.333 +/- 3444802.849 /g); assay type: functional
[14] = Toxicity in Syrian hamster infected with Leishmania infantum BCN150 promastigotes assessed as effect on AST level at 40 mg/kg/day, po for 10 days formulated with 8% v/v DMSO measured after the last treatment; assay type: organism-based, Mesocricetus auratus; conditions: in vivo, 240 h
Beta-casein [15] = molecular target: T1, Beta-casein (Bos taurus, UniProt P02666); test: Binding affinity to bovine milk beta-casein in phosphate buffer assessed as increase in emission intensity at 530 nm at 5 uM measured at pH 8 by fluorescence emission spectrum analysis; assay type: ADME; conditions: cattle
T1 sequence (P02666 whole entry): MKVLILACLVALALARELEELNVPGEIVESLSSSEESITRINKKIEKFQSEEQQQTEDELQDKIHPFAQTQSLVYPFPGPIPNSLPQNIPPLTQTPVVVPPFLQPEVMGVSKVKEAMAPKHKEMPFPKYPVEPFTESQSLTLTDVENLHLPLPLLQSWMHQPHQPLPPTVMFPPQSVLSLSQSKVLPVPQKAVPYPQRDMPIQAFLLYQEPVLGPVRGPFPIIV

WI-38 = test: Cytotoxicity against human WI38 cells incubated for 48 hrs by Celltiter-Glo luminescence assay; assay type: cell-based; conditions: wi-38, 48 h
[16] = Toxicity in Syrian hamster infected with Leishmania infantum BCN150 promastigotes assessed as adverse effects at 20 mg/kg/every 12 hrs, po for 10 days formulated with 50% v/v cyclodextrin measured daily; assay type: organism-based, Mesocricetus auratus; conditions: in vivo
[17] = Toxicity in Syrian hamster infected with Leishmania infantum BCN150 promastigotes assessed as spleen lesions at 40 mg/kg/day, po for 10 days formulated with 8% v/v DMSO measured under necropsy; assay type: organism-based, Mesocricetus auratus; conditions: in vivo, 240 h
[18] = Toxicity in Syrian hamster infected with Leishmania infantum BCN150 promastigotes assessed as effect on plasma creatinine level at 40 mg/kg/day, po for 10 days formulated with 30 to 50% v/v cyclodextrin measured after the last treatment; assay type: organism-based, Mesocricetus auratus; conditions: in vivo, 240 h
Beta-casein [19] = molecular target: T1, Beta-casein; test: Binding affinity to bovine milk beta-casein in phosphate buffer assessed as compound lifetime at 530 nm at 5 uM measured at pH 8 by fluorescence emission spectrum analysis; assay type: ADME; conditions: cattle
[20] = Toxicity in Syrian hamster infected with Leishmania infantum BCN150 promastigotes assessed as spleen weight at 40 mg/kg/day, po for 10 days formulated with 8% v/v DMSO (reference value: 0.182 +/- 0.036 g); assay type: organism-based, Mesocricetus auratus; conditions: in vivo, 240 h
Leishmania infantum [21] = test: Antileishmanial activity against Leishmania infantum amastigotes infected in Syrian hamster assessed as reduction in parasite load at 40 mg/kg/day, po for 10 days formulated with 50% v/v cyclodextrin relative to control; assay type: functional; conditions: 240 h
[22] = AUC (total) in BALB/c mouse at 1 mg/kg, iv measured upto 72 hrs by snapshot method; assay type: ADME, organism-based; set-up: dose 1 mg/kg, time < 72 hr, route intravenous; conditions: in vivo
[23] = Binding affinity to pepsin in porcine gastric mucosa in phosphate buffer assessed as increase in emission intensity at 530 nm at 5 uM measured at pH 8 by fluorescence emission spectrum analysis; assay type: ADME, Sus scrofa; conditions: pig
Leishmania infantum [24] = test: Antileishmanial activity against Leishmania infantum amastigotes infected in Syrian hamster assessed as parasite load within spleen at 20 mg/kg/day, po for 10 days (reference value: 9151063.431 +/- 2606154.975/g); assay type: functional
[25] = Toxicity in Syrian hamster infected with Leishmania infantum BCN150 promastigotes assessed as effect on plasma urea level at 20 mg/kg/day, po for 10 days measured after the last treatment; assay type: organism-based, Mesocricetus auratus; conditions: in vivo, 240 h
[26] = Toxicity in Syrian hamster infected with Leishmania infantum BCN150 promastigotes assessed as nausea at 20 mg/kg/day, po for 10 days measured daily; assay type: organism-based, Mesocricetus auratus; conditions: in vivo, 240 h
[27] = Toxicity in Syrian hamster infected with Leishmania infantum BCN150 promastigotes assessed as spleen weight at 20 mg/kg/day, po for 10 days (reference value: 0.182 +/- 0.036 g); assay type: organism-based, Mesocricetus auratus; conditions: in vivo, 240 h
[28] = Toxicity in Syrian hamster infected with Leishmania infantum BCN150 promastigotes assessed as liver weight at 20 mg/kg/day, po for 10 days (reference value: 5.874 +/- 0.414 g); assay type: organism-based, Mesocricetus auratus; conditions: in vivo, 240 h

Chain of Albumin (P02769 whole entry): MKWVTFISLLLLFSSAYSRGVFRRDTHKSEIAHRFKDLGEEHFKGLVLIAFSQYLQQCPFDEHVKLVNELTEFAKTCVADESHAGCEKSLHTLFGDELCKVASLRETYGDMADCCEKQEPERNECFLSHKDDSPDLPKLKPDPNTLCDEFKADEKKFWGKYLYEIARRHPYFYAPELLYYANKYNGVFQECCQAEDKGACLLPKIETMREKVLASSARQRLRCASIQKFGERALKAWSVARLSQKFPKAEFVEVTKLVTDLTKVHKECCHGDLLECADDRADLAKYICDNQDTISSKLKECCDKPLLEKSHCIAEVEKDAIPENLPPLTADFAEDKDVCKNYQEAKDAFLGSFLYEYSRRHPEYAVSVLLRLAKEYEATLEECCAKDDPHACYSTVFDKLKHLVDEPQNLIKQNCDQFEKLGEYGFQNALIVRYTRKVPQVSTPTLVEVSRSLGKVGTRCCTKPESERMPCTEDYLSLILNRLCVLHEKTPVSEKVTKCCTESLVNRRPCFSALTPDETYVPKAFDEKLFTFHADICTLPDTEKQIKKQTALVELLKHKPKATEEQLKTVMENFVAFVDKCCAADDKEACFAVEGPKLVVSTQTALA

With `COc1ccc2oc(-c3csc4ccccc34)c(O)c(=O)c2c1` the inhibition at 10 µM (Leishmania donovani [1]) was 69%, the inhibition at 10 µM (Leishmania donovani [2]) was 69% and the Activity [3] was “Active”. For the same molecule, the Activity [4] was “Non-Toxic”, the Activity (Leishmania infantum [5]) was 5465832.19 g⁻¹ and the Cmax [6] was 4.76 µM and 1540 ng/mL. The Activity (Leishmania infantum [7]) was 6785423.957 g⁻¹, the Activity [8] was “Non-Toxic” and the Activity [9] was 5.448 g. For the same molecule, the degraded at 50 min, 60 µM [10] was 80%, the Stability [11] was “Stable” and the Activity (Albumin) was “Active”. The inhibition (Leishmania infantum [12]) was “Active”, the Activity (Leishmania infantum [13]) was 3428571.429 g⁻¹ and the Activity [14] was “Non-Toxic”. For the same molecule, the Activity (Beta-casein [15]) was “Active”, the Activity (WI-38) was “Non-Toxic” and the Activity [16] was “Non-Toxic”. For the same molecule, the Activity [17] was “Non-Toxic”, the Activity [18] was “Non-Toxic” and the Time (Beta-casein [19]) was 5.5 nanoseconds. For the same molecule, the Activity [20] was 0.19 g, the inhibition in vivo at 40 mg/kg/day (Leishmania infantum [21]) was 35.8% and the AUC at 72 h [22] was 16.3 µM·h and 5280 ng·h/mL. For the same molecule, the Activity [23] was “Active”.
In the case of `CCCCCCCCCCCCCCCCOP(=O)([O-])OCC[N+](C)(C)C` [MILTEFOSINE], the Activity (Leishmania infantum [24]) is reported as 244476.109 g⁻¹, the Activity [25] is reported as “Non-Toxic” and the Activity [26] is reported as “Toxic”. For the same molecule, the Activity [27] was 0.191 g and the Activity [28] was 5.996 g.

Reference: ChEMBL document CHEMBL4311972, “Discovery of a benzothiophene-flavonol halting miltefosine and antimonial drug resistance in Leishmania parasites through the application of medicinal chemistry, screening and genomics” (Eur J Med Chem, 2019)
